Experimental findings from patent publication US5167616A, “Iontophoretic delivery method” (priority 1989, dated 1992) are described below.

Structures are written as SMILES. “And” between values parts separate entries of the source, which are not always exact repeats. Equal entries are not always repeated.

This data set is described as follows: Iontophoretic transdermal flux of metoclopramide through human cadaver skin (heat-stripped epidermis, two-compartment permeation test cell). Type of data set: in vitro ADME. The conditions noted are these: for Ratio of Average Flux-to-Power: power from voltage at 3.75 hours. The procedure: The transdermal flux of metoclopramide HC1 through samples of human cadaver back skin was measured using a polycarbonate test cell in which the skin sample to be tested is secured between a donor compartment and a receptor compartment. […] The area of the skin samples available for transport was 1.26 cm^2. The test cell device was maintained at a temperature of 32° C. using an aluminum block heat exchanger. An anode comprising a disk of silver foil having a thickness of 0.025 mm was present in the donor compartment while a cathode comprising a sintered disk of powdered silver metal and silver chloride was present in the receptor compartment. Thus, the reduction of silver ions to silver metal occurred at the cathode, while the oxidation of silver to silver ions took place at the anode.
Human cadaver skin was used for the permeation studies. Before securing the skin samples between the donor and the receptor compartment of the test cell, the skin was first heat-stripped by immersing the skin sample in water maintained at 60° C. for 90 seconds allowing the epidermis layer to be separated from the dermis. Circular epidermis samples having a diameter of 2.22 cm were cut using a gasket cutting punch. The epidermis samples were then mounted in the permeation test cell with the stratum corneum side facing the donor compartment.
The electrodes of the test cell were then connected to a Model 363 Potentiostat/Galvanostat, made by EG&G Princeton Applied Research, Princeton, NJ, which supplied a constant level of direct current of 126 μA or 100 μA/cm^2.
The test cell was in operation for four hours with each skin sample. During operation, metoclopramide was iontophoretically delivered from the donor solution through the cadaver skin into the receptor solution. The receptor solution was sampled once every hour over the four hour period. The entire volume (2 ml) of receptor solution was collected and replaced with fresh solution at each sampling point. The metoclopramide concentration in the receptor solution was determined by UV absorbance at 310 nm using a spectrophotometer manufactured by Hewlett Packard, of Palo Alto, CA, Model No. 8452A. Each flux data point shown in FIG. 4 was an average value from three skin specimens, all three specimens having been taken from the same cadaver.
The voltage for each skin sample was monitored throughout the experiment. A representative voltage was measured at 3.75 hours after start of operation for each skin sample and is recorded in Table 2. The power was calculated by multiplying the measured voltage at 3.75 hours by the applied current (i.e., 100 μA/cm^2).
The same equipment and procedures described in Example 1 were used to test human cadaver skin taken from the following sites of the same cadaver tested in Example 1: abdomen, upper arm, forearm, chest and hip/thigh. The average flux of metoclopramide through these skin sites is also plotted in FIG. 4. […] In general, the flux of metoclopramide through back skin was about 50% to 150% higher than the metoclopramide flux through the other tested skin sites.

With `CCN(CC)CCNC(=O)c1cc(Cl)c(N)cc1OC` [metoclopramide], the “Flux through back skin, increase over flux through the other tested skin sites” value is reported as 50-150% and the “Flux through human back skin compared with the other tested skin sites (in words)” value is recorded as “significantly higher flux”. For the setting “Abdomen skin, mean of 3 samples”, the “Average Ratio of Average Flux-to-Power” value is recorded as 336 μg/cm^2 · hr .multido. In addition, the “Ratio of Average Flux-to-Power” value (Abdomen skin) was 347 μg/cm^2 · hr .multido and 277 μg/cm^2 · hr .multido and 384 μg/cm^2 · hr .multido. Further, the “Average Ratio of Average Flux-to-Power” value (Back skin, mean of 6 samples) was determined as 431 μg/cm^2 · hr .multido. Moreover, the “Average Ratio of Average Flux-to-Power” value (Chest skin, mean of 3 samples) is 204 μg/cm^2 · hr .multido. Besides, the “Ratio of Average Flux-to-Power” value (Chest skin) was 205 μg/cm^2 · hr .multido and 196 μg/cm^2 · hr .multido and 211 μg/cm^2 · hr .multido. Also, under “Forearm skin, mean of 3 samples”, the “Average Ratio of Average Flux-to-Power” value was found to be 230 μg/cm^2 · hr .multido. Also, the “Average Ratio of Average Flux-to-Power” value (Hip/Thigh skin, mean of 3 samples) is 222 μg/cm^2 · hr .multido. The “Ratio of Average Flux-to-Power” value (Hip/Thigh skin) was 164 μg/cm^2 · hr .multido and 305 μg/cm^2 · hr .multido and 197 μg/cm^2 · hr .multido. In addition, for the setting “Upper Arm skin, mean of 2 samples”, the “Average Ratio of Average Flux-to-Power” value was 307 μg/cm^2 · hr .multido. Also, the “Average ratio of average flux-to-power, ranking of skin sites (in words)” value (back skin, followed by the abdomen and upper arm, Table 2) is recorded as “highest average ratio of average flux-to-power”.
